From ChEMBL document CHEMBL1143953, “Novel 2-phenylquinolin-7-yl-derived imidazo[1,5-a]pyrazines as potent insulin-like growth factor-I receptor (IGF-IR) inhibitors” (Bioorg Med Chem, 2008)

How the values were obtained:
Cytochrome P450 3A4 = Cytochrome P450 3A4 (Homo sapiens, UniProt P08684); experiment: Inhibition of CYP3A4; format: ADME
[1] = target: T1, Insulin-like growth factor 1 receptor (Homo sapiens, UniProt P08069); experiment: Inhibition of human recombinant full length IGF1R
[2] = target: Tyrosine-protein kinase ABL1 (Homo sapiens, UniProt P00519); experiment: Inhibition of Abl
[3] = target: Tyrosine-protein kinase Fes/Fps (Homo sapiens, UniProt P07332); experiment: Inhibition of FES
[4] = target: Fibroblast growth factor receptor 3 (Homo sapiens, UniProt P22607); experiment: Inhibition of FGFR3
[5] = target: Tyrosine-protein kinase Fyn (Homo sapiens, UniProt P06241); experiment: Inhibition of FYN
Focal adhesion kinase 1 = Focal adhesion kinase 1 (Homo sapiens, UniProt Q05397); experiment: Inhibition of FAK
[6] = target: Receptor-type tyrosine-protein kinase FLT3 (Homo sapiens, UniProt P36888); experiment: Inhibition of FLT3
[7] = target: Vascular endothelial growth factor receptor 2 (Homo sapiens, UniProt P35968); experiment: Inhibition of KDR at 100 uM
[8] = target: Platelet-derived growth factor receptor beta (Homo sapiens, UniProt P09619); experiment: Inhibition of PDGFRbeta
[9] = target: RAF proto-oncogene serine/threonine-protein kinase (Homo sapiens, UniProt P04049); experiment: Inhibition of cRaf
[10] = target: Inhibitor of nuclear factor kappa-B kinase subunit beta (Homo sapiens, UniProt O14920); experiment: Inhibition of IKK-beta
[11] = target: Rho-associated protein kinase 2 (Homo sapiens, UniProt O75116); experiment: Inhibition of Rock2
[12] = Inhibition of RON at 100 uM
[13] = target: Proto-oncogene tyrosine-protein kinase Src (Homo sapiens, UniProt P12931); experiment: Inhibition of SRC
[14] = target: Dual specificity mitogen-activated protein kinase kinase 1 (Homo sapiens, UniProt Q02750); experiment: Inhibition of MEK1
[15] = target: RAC-alpha serine/threonine-protein kinase (Homo sapiens, UniProt P31749); experiment: Inhibition of AKT1
[16] = Inhibition of PKA
[17] = target: Protein kinase C alpha type (Homo sapiens, UniProt P17252); experiment: Inhibition of PKCalpha
[18] = AUC (0 to infinity) in Sprague-Dawley rat at 50 mg/kg, po; format: ADME, organism-based; parameters: dose 50 mg/kg, route oral, time infinity; conditions: plasma
[19] = Oral bioavailability in Sprague-Dawley rat at 50 mg/kg; format: ADME, organism-based; conditions: in vivo
[20] = Clearance in Beagle dog at 2.5 mg/kg, iv; format: ADME, organism-based, Canis lupus familiaris; parameters: dose 2.5 mg/kg, route intravenous; conditions: in vivo
[21] = Volume of distribution at steady state in Beagle dog at 2.5 mg/kg, iv; format: ADME, organism-based, Canis lupus familiaris; parameters: dose 2.5 mg/kg, route intravenous; conditions: in vivo, read-out: Vdss
[22] = Half life in Beagle dog at 2.5 mg/kg, iv; format: ADME, organism-based, Canis lupus familiaris; parameters: dose 2.5 mg/kg, route intravenous; conditions: in vivo
[23] = Cmax in Beagle dog at 5 mg/kg, po; format: ADME, organism-based, Canis lupus familiaris; parameters: dose 5 mg/kg, route oral; conditions: in vivo
[24] = Plasma concentration in Beagle dog at 5 mg/kg, po after 24 hrs; format: ADME, organism-based, Canis lupus familiaris; parameters: dose 5 mg/kg, route oral
[25] = AUC (0 to infinity) in Beagle dog at 5 mg/kg, po; format: ADME, organism-based, Canis lupus familiaris; parameters: time infinity, dose 5 mg/kg, route oral; conditions: plasma
[26] = target: Ribosomal protein S6 kinase beta-1 (Homo sapiens, UniProt P23443); experiment: Inhibition of P70S6K
Aurora kinase A = Aurora kinase A (Homo sapiens, UniProt O14965); experiment: Inhibition of AuroraA
[27] = Inhibition of CDK1/cyclin B
[28] = Inhibition of CDK2/cyclin A
[29] = Inhibition of CDK2/cyclin E
[30] = target: Mitogen-activated protein kinase 10 (Homo sapiens, UniProt P53779); experiment: Inhibition of JNK3
[31] = target: Casein kinase II subunit alpha (Homo sapiens, UniProt P68400); experiment: Inhibition of CK2
NIH3T3 [32] = experiment: Inhibition of IGF1-stimulated purified AKT phosphorylation in mouse 3T3 cells; format: functional, cell-based
NIH3T3 [33] = experiment: Inhibition of IGF1-stimulated purified ERK1 phosphorylation in mouse 3T3 cells; format: functional, cell-based
NIH3T3 [34] = experiment: Inhibition of IGF1-stimulated p70S6K phosphorylation in mouse 3T3 cells; format: functional, cell-based
NIH3T3 [35] = experiment: Inhibition of IGF1-induced proliferation of human IGF1R expressing mouse 3T3 cells; format: functional, cell-based
NIH3T3 [36] = experiment: Antiproliferative activity against human IGF1R expressing mouse 3T3 cells; format: functional, cell-based
[37] = Inhibition of proliferation of human H292 cells; format: functional, cell-based; conditions: NCI-H292
[38] = Inhibition of proliferation of human Colo699 cells; format: functional; conditions: COLO 699
NCI-H358 [39] = experiment: Inhibition of proliferation of human H358 cells; format: functional, cell-based
HT-29 [40] = experiment: Inhibition of proliferation of human HT29 cells; format: functional, cell-based
[41] = Inhibition of proliferation of human GEO cells; format: functional, cell-based
COLO 205 [42] = experiment: Inhibition of proliferation of human Colo205 cells; format: functional, cell-based
[43] = Induction of DNA fragmentation in human H292 cells at 10 uM relative to control; format: functional
[44] = Induction of DNA fragmentation in human Colo699 cells at 10 uM relative to control; format: functional
NCI-H358 [45] = experiment: Induction of DNA fragmentation in human H358 cells at 10 uM relative to control; format: functional
HT-29 [46] = experiment: Induction of DNA fragmentation in human HT29 cells at 10 uM relative to control; format: functional
[47] = Induction of DNA fragmentation in human GEO cells at 10 uM relative to control; format: functional
COLO 205 [48] = experiment: Induction of DNA fragmentation in human Colo205 cells at 10 uM relative to control; format: functional
[49] = Clearance in CD1 mouse at 5 mg/kg, iv; format: ADME, organism-based; parameters: dose 5 mg/kg, route intravenous; conditions: in vivo
[50] = Volume of distribution at steady state in CD1 mouse at 5 mg/kg, iv; format: ADME, organism-based; parameters: dose 5 mg/kg, route intravenous; conditions: in vivo, read-out: Vdss
[51] = Half life in CD1 mouse at 5 mg/kg, iv; format: ADME, organism-based; parameters: dose 5 mg/kg, route intravenous; conditions: in vivo
[52] = Cmax in CD1 mouse at 25 mg/kg, po; format: ADME, organism-based; parameters: dose 25 mg/kg, route oral; conditions: in vivo
[53] = Plasma concentration in CD1 mouse at 25 mg/kg, po after 24 hrs; format: ADME, organism-based; parameters: dose 25 mg/kg, route oral
[54] = AUC (0 to infinity) in CD1 mouse at 25 mg/kg, po; format: ADME, organism-based; parameters: time infinity, dose 25 mg/kg, route oral; conditions: plasma
[55] = Oral bioavailability in CD1 mouse at 25 mg/kg; format: ADME, organism-based; conditions: in vivo
[56] = Clearance in Sprague-Dawley rat at 1 mg/kg, iv; format: ADME, organism-based; parameters: dose 1 mg/kg, route intravenous; conditions: in vivo
[57] = Volume of distribution at steady state in Sprague-Dawley rat at 1 mg/kg, iv; format: ADME, organism-based; parameters: dose 1 mg/kg, route intravenous; conditions: in vivo, read-out: Vdss
[58] = Cmax in Sprague-Dawley rat at 50 mg/kg, po; format: ADME, organism-based; parameters: dose 50 mg/kg, route oral; conditions: in vivo
[59] = Plasma concentration in Sprague-Dawley rat at 50 mg/kg, po after 24 hrs; format: ADME, organism-based; parameters: dose 50 mg/kg, route oral
[60] = Oral bioavailability in Beagle dog at 5 mg/kg; format: ADME, organism-based, Canis lupus familiaris; conditions: in vivo
NIH3T3 [61] = experiment: Antitumor activity in IGFR expressing mouse 3T3 cells xenografted nu/nu CD1 mouse at 25 mg/kg, po administered once daily for 14 days; format: functional; conditions: CD1, NIH3T3, 336 h, read-out: TGI
NIH3T3 [62] = experiment: Antitumor activity in IGFR expressing mouse 3T3 cells xenografted nu/nu CD1 mouse at 75 mg/kg, po administered once daily for 14 days; format: functional; conditions: CD1, NIH3T3, 336 h, read-out: TGI
Mus musculus [63] = experiment: Effect on blood glucose level in CD1 mouse at 25 mg/kg, po for 14 days; format: functional
Mus musculus [64] = experiment: Increase in blood glucose level in CD1 mouse at 50 mg/kg, po for 14 days; format: functional
Mus musculus [65] = experiment: Increase in blood glucose level in CD1 mouse at 100 mg/kg, po for 14 days; format: functional
Mus musculus [66] = experiment: Increase in glucose level in CD1 mouse at 100 mg/kg, po 2 hrs after glucose challenge; format: functional
Mus musculus [67] = experiment: Effect on plasma insulin level in CD1 mouse at 25 mg/kg, po after 4 hrs; format: functional
Mus musculus [68] = experiment: Effect on plasma insulin level in CD1 mouse at 50 mg/kg, po after 4 hrs; format: functional
Mus musculus [69] = experiment: Effect on plasma insulin level in CD1 mouse at 100 mg/kg, po after 4 hrs; format: functional
[70] = Half life in Sprague-Dawley rat at 1 mg/kg, iv; format: ADME, organism-based; parameters: dose 1 mg/kg, route intravenous; conditions: in vivo
[71] = target: Mitogen-activated protein kinase 1 (Mus musculus) (UniProt P63085); experiment: Inhibition of IGF1-stimulated purified ERK2 phosphorylation in mouse 3T3 cells; format: cell-based; conditions: NIH3T3
[72] = target: T1, Insulin-like growth factor 1 receptor
Description: Inhibition of human recombinant full length IGF1R expressed in mouse 3T3 cells

Insulin receptor = Insulin receptor (Homo sapiens, UniProt P06213); experiment: Inhibition of human purified insulin receptor in biochemical assay at 100 uM ATP
Chain of Insulin receptor (P06213 28-758 limits assumed): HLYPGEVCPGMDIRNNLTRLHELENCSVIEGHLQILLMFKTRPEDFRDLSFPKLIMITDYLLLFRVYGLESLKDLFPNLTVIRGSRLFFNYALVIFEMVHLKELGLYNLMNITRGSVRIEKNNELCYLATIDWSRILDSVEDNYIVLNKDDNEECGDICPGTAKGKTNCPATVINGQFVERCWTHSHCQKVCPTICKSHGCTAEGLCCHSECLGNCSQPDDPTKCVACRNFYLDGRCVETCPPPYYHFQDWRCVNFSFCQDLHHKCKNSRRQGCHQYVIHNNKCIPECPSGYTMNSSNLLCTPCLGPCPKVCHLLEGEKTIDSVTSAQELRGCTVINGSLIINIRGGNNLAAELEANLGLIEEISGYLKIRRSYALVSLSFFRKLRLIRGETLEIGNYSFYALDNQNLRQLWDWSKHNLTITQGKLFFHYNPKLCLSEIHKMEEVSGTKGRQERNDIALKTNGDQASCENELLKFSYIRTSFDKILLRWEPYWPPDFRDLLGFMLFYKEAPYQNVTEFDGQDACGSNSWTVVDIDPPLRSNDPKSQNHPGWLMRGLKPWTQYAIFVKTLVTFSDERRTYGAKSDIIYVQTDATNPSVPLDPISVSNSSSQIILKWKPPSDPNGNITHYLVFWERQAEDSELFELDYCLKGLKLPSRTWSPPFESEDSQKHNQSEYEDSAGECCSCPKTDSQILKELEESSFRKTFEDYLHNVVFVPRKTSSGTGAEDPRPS
Chain of Insulin receptor (P06213 763-1382 limits assumed): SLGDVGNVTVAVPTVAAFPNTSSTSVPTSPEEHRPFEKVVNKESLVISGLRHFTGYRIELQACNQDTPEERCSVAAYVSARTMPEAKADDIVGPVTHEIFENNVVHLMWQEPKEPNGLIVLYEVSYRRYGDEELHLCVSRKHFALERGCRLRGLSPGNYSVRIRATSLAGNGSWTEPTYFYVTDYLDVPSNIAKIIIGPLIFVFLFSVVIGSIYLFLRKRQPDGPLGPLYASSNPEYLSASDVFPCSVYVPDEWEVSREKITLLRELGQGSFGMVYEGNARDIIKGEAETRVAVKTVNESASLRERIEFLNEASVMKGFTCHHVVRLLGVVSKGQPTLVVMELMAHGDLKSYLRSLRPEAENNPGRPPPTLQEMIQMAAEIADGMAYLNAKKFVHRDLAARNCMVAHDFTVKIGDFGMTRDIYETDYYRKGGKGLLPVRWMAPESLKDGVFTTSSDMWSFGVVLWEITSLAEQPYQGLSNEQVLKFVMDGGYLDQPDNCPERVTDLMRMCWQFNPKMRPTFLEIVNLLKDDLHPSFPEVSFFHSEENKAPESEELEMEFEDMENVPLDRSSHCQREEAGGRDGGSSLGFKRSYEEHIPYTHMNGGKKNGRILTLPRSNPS

Chain of Cytochrome P450 3A4 (P08684 whole entry): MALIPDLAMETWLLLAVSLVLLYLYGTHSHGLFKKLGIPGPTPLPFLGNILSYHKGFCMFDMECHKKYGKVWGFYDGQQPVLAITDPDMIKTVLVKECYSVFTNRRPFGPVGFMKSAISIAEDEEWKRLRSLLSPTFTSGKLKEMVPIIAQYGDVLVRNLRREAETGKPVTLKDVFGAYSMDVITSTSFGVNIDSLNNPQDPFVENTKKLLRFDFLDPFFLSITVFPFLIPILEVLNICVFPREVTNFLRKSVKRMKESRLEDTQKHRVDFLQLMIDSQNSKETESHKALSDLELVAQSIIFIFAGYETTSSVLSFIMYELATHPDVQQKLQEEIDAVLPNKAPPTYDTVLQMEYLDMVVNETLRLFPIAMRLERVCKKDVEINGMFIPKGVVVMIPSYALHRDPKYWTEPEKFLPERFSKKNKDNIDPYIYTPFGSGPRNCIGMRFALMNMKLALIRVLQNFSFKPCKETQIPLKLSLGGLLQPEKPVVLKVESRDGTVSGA
T1 sequence (P08069 31-736 limits assumed): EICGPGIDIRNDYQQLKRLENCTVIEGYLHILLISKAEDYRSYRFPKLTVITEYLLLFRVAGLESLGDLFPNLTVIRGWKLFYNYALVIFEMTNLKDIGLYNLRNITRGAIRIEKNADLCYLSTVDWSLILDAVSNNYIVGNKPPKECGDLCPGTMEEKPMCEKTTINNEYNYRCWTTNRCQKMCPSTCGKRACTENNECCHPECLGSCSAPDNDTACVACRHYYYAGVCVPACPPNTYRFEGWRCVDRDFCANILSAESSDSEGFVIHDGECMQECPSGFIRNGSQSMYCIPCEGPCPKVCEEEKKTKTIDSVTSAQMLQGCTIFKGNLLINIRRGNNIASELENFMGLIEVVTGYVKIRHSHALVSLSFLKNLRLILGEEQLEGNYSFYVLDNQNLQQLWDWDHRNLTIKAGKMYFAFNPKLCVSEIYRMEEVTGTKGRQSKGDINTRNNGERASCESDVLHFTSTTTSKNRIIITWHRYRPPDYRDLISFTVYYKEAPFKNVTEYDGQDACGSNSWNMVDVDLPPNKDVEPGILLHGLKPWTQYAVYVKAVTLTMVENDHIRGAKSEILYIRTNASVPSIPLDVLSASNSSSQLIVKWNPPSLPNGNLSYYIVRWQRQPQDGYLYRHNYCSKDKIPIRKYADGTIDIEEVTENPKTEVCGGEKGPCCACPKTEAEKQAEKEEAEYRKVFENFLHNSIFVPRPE
T1 sequence (P08069 741-1367 limits assumed): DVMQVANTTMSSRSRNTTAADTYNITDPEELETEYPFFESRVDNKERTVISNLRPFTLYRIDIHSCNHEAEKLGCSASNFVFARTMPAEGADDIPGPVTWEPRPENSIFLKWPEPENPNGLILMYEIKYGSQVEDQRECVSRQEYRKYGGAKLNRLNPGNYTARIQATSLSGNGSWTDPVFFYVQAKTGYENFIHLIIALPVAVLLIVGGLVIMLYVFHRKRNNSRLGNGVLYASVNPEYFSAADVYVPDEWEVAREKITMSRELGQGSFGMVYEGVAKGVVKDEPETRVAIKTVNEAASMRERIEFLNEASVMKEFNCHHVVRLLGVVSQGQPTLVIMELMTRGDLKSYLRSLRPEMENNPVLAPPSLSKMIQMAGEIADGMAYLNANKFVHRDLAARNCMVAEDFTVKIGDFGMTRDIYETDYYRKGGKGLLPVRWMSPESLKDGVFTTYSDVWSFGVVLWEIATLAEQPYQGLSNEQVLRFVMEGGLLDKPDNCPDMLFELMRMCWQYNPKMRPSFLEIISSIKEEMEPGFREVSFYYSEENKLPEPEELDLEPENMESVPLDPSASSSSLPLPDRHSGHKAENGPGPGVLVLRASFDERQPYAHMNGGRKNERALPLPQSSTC
Chain of Dual specificity mitogen-activated protein kinase kinase 1 (Q02750 whole entry): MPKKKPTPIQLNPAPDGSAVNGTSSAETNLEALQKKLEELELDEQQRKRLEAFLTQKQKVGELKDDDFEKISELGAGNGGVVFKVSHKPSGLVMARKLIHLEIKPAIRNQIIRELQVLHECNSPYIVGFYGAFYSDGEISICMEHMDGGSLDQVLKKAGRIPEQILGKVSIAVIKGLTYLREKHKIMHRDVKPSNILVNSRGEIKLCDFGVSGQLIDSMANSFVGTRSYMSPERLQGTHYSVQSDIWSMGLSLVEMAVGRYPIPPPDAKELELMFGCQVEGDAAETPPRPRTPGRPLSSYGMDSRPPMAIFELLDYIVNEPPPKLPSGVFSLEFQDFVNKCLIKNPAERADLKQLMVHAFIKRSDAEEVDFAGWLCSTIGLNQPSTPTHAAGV
Chain of Rho-associated protein kinase 2 (O75116 whole entry): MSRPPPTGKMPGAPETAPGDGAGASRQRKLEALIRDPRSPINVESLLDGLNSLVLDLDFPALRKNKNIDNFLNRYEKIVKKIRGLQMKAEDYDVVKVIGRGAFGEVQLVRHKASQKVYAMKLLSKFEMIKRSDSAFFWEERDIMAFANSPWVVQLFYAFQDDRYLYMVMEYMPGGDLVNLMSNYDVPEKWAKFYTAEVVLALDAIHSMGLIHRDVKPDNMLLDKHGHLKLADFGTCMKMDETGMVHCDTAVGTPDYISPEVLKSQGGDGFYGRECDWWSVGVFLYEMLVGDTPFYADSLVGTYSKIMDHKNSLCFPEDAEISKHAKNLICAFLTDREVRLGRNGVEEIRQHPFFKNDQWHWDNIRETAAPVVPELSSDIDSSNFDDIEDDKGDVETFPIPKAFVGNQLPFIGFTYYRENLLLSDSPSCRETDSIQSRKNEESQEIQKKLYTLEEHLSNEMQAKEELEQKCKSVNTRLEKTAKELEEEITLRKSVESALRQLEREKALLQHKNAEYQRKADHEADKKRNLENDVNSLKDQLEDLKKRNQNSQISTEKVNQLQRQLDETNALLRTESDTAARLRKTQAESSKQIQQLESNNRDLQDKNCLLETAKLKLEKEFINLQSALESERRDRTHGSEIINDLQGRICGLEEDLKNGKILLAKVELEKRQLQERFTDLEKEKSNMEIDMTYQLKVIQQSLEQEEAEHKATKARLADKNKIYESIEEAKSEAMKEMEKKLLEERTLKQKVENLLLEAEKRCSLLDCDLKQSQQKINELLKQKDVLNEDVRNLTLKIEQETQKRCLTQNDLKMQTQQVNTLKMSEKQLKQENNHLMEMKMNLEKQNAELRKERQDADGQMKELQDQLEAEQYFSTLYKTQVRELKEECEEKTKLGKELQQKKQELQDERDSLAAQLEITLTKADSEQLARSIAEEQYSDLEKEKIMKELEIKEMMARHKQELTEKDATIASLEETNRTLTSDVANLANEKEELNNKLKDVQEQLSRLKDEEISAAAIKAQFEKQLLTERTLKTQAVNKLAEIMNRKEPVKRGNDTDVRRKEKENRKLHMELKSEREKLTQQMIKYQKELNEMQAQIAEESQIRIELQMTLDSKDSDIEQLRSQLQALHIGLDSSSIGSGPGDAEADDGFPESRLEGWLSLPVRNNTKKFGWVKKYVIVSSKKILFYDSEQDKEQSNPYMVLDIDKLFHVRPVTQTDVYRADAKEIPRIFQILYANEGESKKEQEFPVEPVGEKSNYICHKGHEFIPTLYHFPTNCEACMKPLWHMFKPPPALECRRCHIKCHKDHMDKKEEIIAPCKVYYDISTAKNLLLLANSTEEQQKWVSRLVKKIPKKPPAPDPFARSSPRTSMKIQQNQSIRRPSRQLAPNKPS

Nc1nccn2c1c(-c1ccc3ccc(-c4ccccc4)nc3c1)nc2[C@H]1C[C@H](CN2CCOCC2)C1
IC50 (Cytochrome P450 3A4): > 20 µM

CN(C)[C@H]1C[C@@H](c2nc(-c3ccc4ccc(-c5ccccc5)nc4c3)c3c(N)nccn32)C1
IC50 (Cytochrome P450 3A4): 19 µM

Nc1nccn2c1c(-c1ccc3ccc(-c4ccccc4)nc3c1)nc2[C@H]1C[C@@H](CN2CCC2)C1
IC50 (Cytochrome P450 3A4): > 20 µM
IC50 [1]: 0.035 µM
IC50 [2]: > 10 µM
IC50 [3]: > 10 µM
IC50 [4]: > 10 µM
IC50 [5]: > 10 µM
IC50 (Focal adhesion kinase 1): > 10 µM
IC50 [6]: > 10 µM
IC50 [7]: 4.3 µM
IC50 [8]: > 10 µM
IC50 [9]: > 10 µM
IC50 [10]: > 10 µM
IC50 [11]: > 5 µM
IC50 [12]: 5.9 µM
IC50 [13]: > 10 µM
IC50 [14]: > 10 µM
IC50 [15]: > 10 µM
IC50 [16]: > 10 µM
IC50 [17]: > 10 µM
AUC(0-inf) [18]: 37400 ng·h/mL
bioavailability [19]: 38%
clearance [20]: 30 mL/min/kg
Vd [21]: 50 L/kg
half-life [22]: 19 h
Cmax [23]: 170 nM
concentration at 24 h [24]: 90 nM
AUC(0-inf) [25]: 3010 ng·h/mL
IC50 [26]: > 10 µM
IC50 (Aurora kinase A): > 10 µM
IC50 [27]: > 10 µM
IC50 [28]: > 10 µM
IC50 [29]: > 10 µM
IC50 [30]: > 10 µM
IC50 [31]: > 10 µM
Activity (NIH3T3 [32]): Dose-dependent effect
Activity (NIH3T3 [33]): Dose-dependent effect
Activity (NIH3T3 [34]): Dose-dependent effect
IC50 (NIH3T3 [35]): 0.05 µM
IC50 (NIH3T3 [36]): 0.05 µM
IC50 [37]: 1.95 µM
IC50 [38]: 0.69 µM
IC50 (NCI-H358 [39]): 2.98 µM
IC50 (HT-29 [40]): 1.26 µM
IC50 [41]: 0.27 µM
IC50 (COLO 205 [42]): 0.93 µM
Activity [43]: 51
Activity [44]: 16
Activity (NCI-H358 [45]): 2.7
Activity (HT-29 [46]): 46
Activity [47]: 4
Activity (COLO 205 [48]): 0.8
clearance [49]: 24 mL/min/kg
Vd [50]: 10 L/kg
half-life [51]: 5.1 h
Cmax [52]: 3400 nM
concentration at 24 h [53]: 400 nM
AUC(0-inf) [54]: 25600 ng·h/mL
bioavailability [55]: 100%
clearance [56]: 10 mL/min/kg
Vd [57]: 14 L/kg
Cmax [58]: 1600 nM
concentration at 24 h [59]: 900 nM
bioavailability [60]: 94%
inhibition in vivo at 25 mg/kg (NIH3T3 [61]): 92%
inhibition in vivo at 75 mg/kg (NIH3T3 [62]): > 100%
Activity (Mus musculus [63]): -2.9%
Activity (Mus musculus [64]): 18%
Activity (Mus musculus [65]): 75%
Activity (Mus musculus [66]): 44%
Activity (Mus musculus [67]): 13.1 ng/mL
Activity (Mus musculus [68]): 14.7 ng/mL
Activity (Mus musculus [69]): 27 ng/mL
half-life [70]: 19.9 h
Activity [71]: Dose-dependent effect
IC50 [72]: 0.02 µM
IC50 (Insulin receptor): 0.076 µM

CN(C)C[C@H]1C[C@@H](c2nc(-c3ccc4ccc(-c5ccccc5)nc4c3)c3c(N)nccn32)C1
IC50 (Cytochrome P450 3A4): 15 µM
